As usually defined, the half-life is how long it takes for the measured level to halve.

Series [1] relates to chlorophyll a. Briefly: DNA1-19-1 second and third pond efficacy studies: chlorophyll a. Format: in vivo. The following applies: second and third efficacy study; 1, 0.3, and 0.1 μM. As for the experimental part: (§1) The method described by Schrader et al. (2000) was used to determine the potential for using the anthraquinone derivatives as selective algicides in catfish aquaculture ponds. All catfish ponds used in efficacy tests were maintained using commercial pond management practices and were located at the Thad Cochran Pond Facility, Mississippi State University, Stoneville, Miss. Anthraquinone analogs were dissolved in deionized water before application to water within the limnocorrals.
(§2) Limnocorrals in which test compound was applied to the enclosed water were randomly selected, and control (no test compound applied) limnocorrals were included in each efficacy study. For each sampling, two water samples (250 mL) were obtained from within each limnocorral (approximately 6-8 cm below the water surface and from opposite sides of each limnocorral) and mixed together in a 500 mL sample bottle to provide a representative sample of the water contained within the limnocorral.
(§3) In the second study with DNA1-19-1, twelve limnocorrals that were the same size as those used in the first study were placed in another 4-ha earthen catfish pond. […] The sampling regime and procedures used in the first study were followed in a similar manner, except that water samples were obtained before DNA1-19-1 application, 16 hours after application, and at days 2, 4, and 7. […]

In series [2] the test system is chlorophyll a. The experiment in a line: DNA1-19-1 first pond efficacy study (limnocorrals): chlorophyll a. Format: in vivo. The conditions noted are these: 2 μM, within 24 hours.
For another series, the system named is O. perornata. Briefly: DNA1-19-1 second and third pond efficacy studies: O. perornata filaments. The following applies: second and third efficacy study; 1, 0.3, and 0.1 μM. Format: in vivo, Oscillatoria perornata. As for the experimental part:
as §1, §2, §3

A further series deals with green algae. Briefly: DNA1-19-1 first pond efficacy study (limnocorrals): green algae abundance. The conditions noted are these: 2 μM, until 10 days after application, LSD. Format: in vivo, green algae (Division Chlorophyta). As for the experimental part: as §1, §2
Three pond efficacy studies were conducted with DNA1-19-1. […] To perform phytoplankton identification and enumeration, water samples were processed by preserving 50-mL subsamples with Lugol's solution and storing them at 4° C. until they could be identified and counted as “natural units” (i.e., colonies, filaments, or unialgal cells) using a Sedgewick-Rafter counting chamber at 300× magnification. […]

For another series, the system named is 2-methylisoborneol. Briefly: DNA2-59-1 second pond efficacy study: MIB levels. Format: in vivo. The conditions noted are these: 0.3 μM, after three days. The method, then: as §1, §2
(§4) In the second efficacy test with DNA2-59-1, six limnocorrals (1.53 m in diameter and 1.53 m high) were placed in a 0.1-ha earthen pond containing a heavy bloom of O. perornata. The same delay in mixing the water within the limnocorrals used in the first efficacy study was utilized. Water within three randomly selected limnocorrals received an application rate of 0.3 μM DNA2-59-1, and the other three limnocorrals were controls. […]

Series [3] can be described thus: DNA2-59-1 second efficacy study: dissipation rate and half-life in pond water (HPLC). Format: physicochemical. The conditions noted are these: for DNA2-59-1 Levels in Pond Water: second study, 0.3 μM applied. The method, then: In the second efficacy test with DNA2-59-1, six limnocorrals (1.53 m in diameter and 1.53 m high) were placed in a 0.1-ha earthen pond containing a heavy bloom of O. perornata. The same delay in mixing the water within the limnocorrals used in the first efficacy study was utilized. Water within three randomly selected limnocorrals received an application rate of 0.3 μM DNA2-59-1, and the other three limnocorrals were controls. Water samples were collected before application of DNA2-59-1, 20 minutes after application, and at days 1, 2, 3, and 7. The same tests and methods used in the first efficacy testing of DNA2-59-1 were used.
Approximately 15 mL each of water samples from DNA2-59-1 efficacy testing that were designated for HPLC analysis were placed in scintillation vials and held in a freezer. Water samples were later melted at room temperature, and 5 mL of each sample was then filtered through a nylon membrane filter (13 mm diameter and 0.45 μm; Whatman International, Maidstone, England) using a 5 mL syringe (Hamilton Company, Reno, Nev.) and a 13 mm syringe filter holder (Fisher Scientific Company, Pittsburgh, Pa.). Filtrate (1 mL) was placed in 2 mL vials and capped using teflon/rubber septum caps (National Scientific Company, Jeddah, Saudia Arabia). The filter paper was removed and placed in a scintillation vial to which 2 mL of HPLC grade methanol (Fisher Scientific, Fair Lawn, N.J.) was added and then sonicated for 5 minutes. The methanol solution was then filtered using a nylon membrane acrodisc (25 mm and 0.45 μm; Pall Life Sciences, Ann Arbor, Mich.), and the methanol filtrate was placed in separate 2 mL vials.
Filtrate samples were analyzed using a Waters 2690 Alliance HPLC containing a 996 PDA detector and a XTerra RP 18 column (150 mm×4.6 mm, 5 μm particle size; Waters Corporation, Milford, Mass.). The mobile phase consisted of 25 mM sodium dihydrogenphosphate in 0.1% phosphoric acid (A) and acetonitrile (B). The gradient was from 80A/20B in 15 minutes to 40A/60B. After each run, a 5 minute wash with methanol was performed, followed by equilibrating the column for 10 minutes with 80A/20B. The temperature was set at 40° C., the flow rate was 1 mL/minute, the detection wavelength 256 nm, and the sample injection volume was 10 μL. All solvents used were HPLC grade (Fisher Scientific, Fair Lawn, N.J.).
Means and standard deviations of data were determined and graphed. The graphs were used to help determine the half-life of DNA2-59-1 in the pond water. Because of the short duration of the first efficacy study, the half-life of DNA2-59-1 in the pond water could not be determined.

The subject of the next series is Raphidiopsis brookii. Briefly: DNA2-59-1 second pond efficacy study: Raphidiopsis brookii abundance. Format: in vivo. The conditions noted are these: 0.3 μM, within three days of application. The method, then:
as §1, §2, §4

As to `CCN(CC)CCCC(C)NCc1ccc2c(c1)C(=O)c1ccccc1C2=O.O=P(O)(O)O.O=P(O)(O)O` (stereo not drawn) [DNA1-19-1, 2-[methylamino-N-(1′-methyl-4′-N,N-diethylaminobutyl)]-9,10-anthraquinone diphosphate], the “chlorophyll a levels compared to controls (result in words)” value with chlorophyll a [1] is “lack of reduction”. For the same compound, in the series on chlorophyll a [2], the “Chlorophyll a levels (result in words)” value was “decreased significantly”. For the same compound, the “numbers of O. perornata filaments compared to controls (result in words)” value in the series with O. perornata is listed as “lack of reduction”. In addition, the “Numbers of green algae, treated vs controls (result in words)” value in the series on green algae was “not significantly different”.

Take `CC(C)NCc1ccc2c(c1)C(=O)c1ccccc1C2=O` [DNA2-59-1, 2-[methylamino-N-(1′-methylethyl)]-9,10-anthraquinone monophosphate]: in the series with 2-methylisoborneol, the “Levels of MIB (result in words)” value is “significantly reduced”. In series [3] (pond water in limnocorrals (earthen catfish pond), second efficacy study), this compound had a half-life at 0.3 μM of 1140 min. Also, the DNA2-59-1 Levels in Pond Water is 94.8 ± 11.5 µg/L in series [3] (0 hours); 36.1 ± 4.5 µg/L in series [3] (24 hours); 16.3 ± 0.4 µg/L in series [3] (48 hours); 7.6 ± 0.7 µg/L in series [3] (72 hours); 0 µg/L in series [3] (168 hours). Moreover, the “Numbers of Raphidiopsis brookii (result in words)” value in the series on Raphidiopsis brookii is “significantly and dramatically reduced”.

Source of the values: patent publication US6949250B2, “Selective algaecides for control of cyanochloronta” (The United States of America as represented by the …, priority 2002, dated 2005).
